Among the test systems are Malme-3M; COLO 205; HT-29; OVCAR-3; MOLT-4; SK-MEL-28; CAKI-1; NCI-H226; KM12; HL-60; M19-MEL; M14; A549; HOP-62; SR; KM-20L2; ACHN; LOX IMVI; RXF 393; T47D.
Common to all, as to assay: NCI tumour cell line growth inhibition, 48 h

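Five compound concentrations were applied to cells in 96-well plates for 48 hours; endpoints were derived by simple linear interpolation of the resulting dose-response curve. GI50 marks 50% less growth.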 Active and inactive are the calls of the source. Rule as the data show it: active = GI50 up to about 1.1 µM and inactive = higher.

Turning to `CCCCCCCCCCCCCCCCCC(=O)NCC(COP(=O)(O)O)OCC` (stereo not given), the GI50 in the assay on Malme-3M is > 100 µM (inactive); in the assay on COLO 205, > 100 µM (inactive); in the assay with HT-29, 68.7 µM (inactive); in the assay on OVCAR-3, > 100 µM (inactive); with MOLT-4, > 100 µM (inactive); with SK-MEL-28 it was > 100 µM (inactive). Besides, the GI50 in the assay with CAKI-1 was 31.2 µM (inactive); with NCI-H226, 27.7 µM (inactive); with KM12 it was 25 µM (inactive); with HL-60, > 100 µM (inactive); in the assay with M19-MEL, > 100 µM (inactive); in the assay on M14, 77.1 µM (inactive). Moreover, the GI50 in the assay with A549 was 31.1 µM (inactive); in the assay on HOP-62 it was 22 µM (inactive); in the assay on SR, > 100 µM (inactive).
As for `COc1ccc(/C=C/C(=O)c2sc(Nc3ccc([N+](=O)[O-])cc3)nc2C)cc1`, the GI50 in the assay with KM-20L2 is 48.6 µM (inactive); with Malme-3M it was 47 µM (inactive); with COLO 205, 45.7 µM (inactive); in the assay with OVCAR-3 it was 26 µM (inactive); with ACHN it was 38.6 µM (inactive); with MOLT-4, 17.7 µM (inactive). The GI50 in the assay on SK-MEL-28 is 40.2 µM (inactive); in the assay on LOX IMVI, 31.6 µM (inactive); in the assay on CAKI-1, 40.2 µM (inactive); with KM12, 27.4 µM (inactive); in the assay with RXF 393 it was 23.1 µM (inactive); in the assay with HL-60 it was 21.2 µM (inactive). For the same molecule, the values for the GI50 in the assay on M19-MEL, in the assay on A549 and in the assay with HOP-62 were 53.1 µM (inactive), 33 µM (inactive) and 64.1 µM (inactive), respectively.
Regarding `Cn1c(CBr)nc2c1C(=O)c1nc(CBr)[nH]c(=O)c1C2=O`, the GI50 in the assay on KM-20L2 was 46.1 µM (inactive); in the assay with COLO 205 it was > 100 µM (inactive); with HT-29, > 100 µM (inactive); in the assay with ACHN it was > 100 µM (inactive); in the assay on MOLT-4, > 100 µM (inactive); in the assay on SK-MEL-28, > 100 µM (inactive). The GI50 in the assay with LOX IMVI was 50.1 µM (inactive); in the assay with CAKI-1, > 100 µM (inactive); in the assay with RXF 393 it was > 100 µM (inactive); in the assay with M19-MEL, 26.8 µM (inactive); in the assay on M14, > 100 µM (inactive); in the assay on A549, > 100 µM (inactive).
As to `COc1ccc(C2SC(=N)Nc3c2c(C)nn3C(=O)c2ccncc2)cc1OC` (stereo not given), the GI50 in the assay with T47D, in the assay on Malme-3M, with COLO 205, in the assay with HT-29, in the assay on OVCAR-3 and in the assay with ACHN was > 10 µM (inactive) throughout. The GI50 in the assay on MOLT-4, in the assay with SK-MEL-28, in the assay with LOX IMVI, in the assay with CAKI-1, in the assay on NCI-H226 and in the assay on KM12 was > 10 µM (inactive) in each case. For the same molecule, the GI50 with RXF 393, in the assay on HL-60, with M14, with A549, with HOP-62 and in the assay with SR was > 10 µM (inactive) throughout.
Regarding `CCCNC(=S)N/N=C(\C)c1ccc(S(=O)(=O)N(C)c2ccccc2)cc1`, the GI50 with T47D is > 67.3 µM (inactive); with Malme-3M, > 100 µM (inactive); in the assay on COLO 205, > 100 µM (inactive); with HT-29, > 100 µM (inactive); in the assay with OVCAR-3 it was > 59.2 µM (inactive); with ACHN, 24.7 µM (inactive). In addition, the GI50 is > 100 µM (inactive) with MOLT-4; > 100 µM (inactive) with SK-MEL-28; > 100 µM (inactive) in the assay on LOX IMVI; 24.2 µM (inactive) with CAKI-1; 29.1 µM (inactive) with NCI-H226; > 100 µM (inactive) in the assay on KM12. Further, the GI50 with RXF 393 was 15.3 µM (inactive); with HL-60, > 100 µM (inactive); in the assay on M14, > 29.1 µM (inactive); in the assay with A549 it was 46.3 µM (inactive); in the assay on HOP-62 it was 6.34 µM (inactive); in the assay with SR, 49.5 µM (inactive).
Turning to `O=C1OCN(c2ccccc2)C12CCN(Cc1ccccc1)CC2`, the GI50 in the assay with T47D was 23 µM (inactive); with Malme-3M, 18.1 µM (inactive); with COLO 205, 18.8 µM (inactive); with HT-29 it was 16.4 µM (inactive); in the assay with OVCAR-3 it was > 10 µM (inactive); with ACHN it was 49.2 µM (inactive). Besides, the GI50 with MOLT-4 is 13.6 µM (inactive); in the assay with SK-MEL-28 it was 19.3 µM (inactive); with LOX IMVI, 14.6 µM (inactive); with CAKI-1, 45 µM (inactive); with NCI-H226, > 100 µM (inactive); in the assay on KM12 it was 23.7 µM (inactive). Besides, the GI50 was 16.9 µM (inactive) with RXF 393; 27.8 µM (inactive) in the assay on HL-60; 18.2 µM (inactive) in the assay with M14; 41.2 µM (inactive) in the assay with A549; 49.3 µM (inactive) in the assay with HOP-62; 34.4 µM (inactive) with SR.
On to `O=[N+]([O-])c1cccc2nc3ccccc3c(NCCN(CCO)CCO)c12`, for which the GI50 with T47D was 0.00367 µM (active); in the assay on KM-20L2, 0.00509 µM (active); with Malme-3M, 0.00296 µM (active); in the assay on COLO 205, 0.000904 µM (active); with HT-29, 0.00256 µM (active); in the assay on OVCAR-3, 0.00536 µM (active). In addition, the GI50 in the assay with ACHN is 0.00361 µM (active); in the assay with LOX IMVI, 0.00701 µM (active); in the assay on CAKI-1, 0.0064 µM (active); in the assay on NCI-H226 it was 0.00102 µM (active); in the assay with KM12, 0.00498 µM (active); in the assay on RXF 393 it was 0.00121 µM (active). Further, the GI50 is 0.0104 µM (active) in the assay with HL-60; 0.00338 µM (active) in the assay with M14; 0.00272 µM (active) in the assay with A549; 0.00282 µM (active) in the assay on HOP-62; 0.00123 µM (active) with SR.
For the molecule `N#C/C(=C1\SC(/N=N/c2ccc(Cl)cc2)C(=O)N1c1ccccc1)c1nc2ccccc2[nH]1` (stereo not given), the GI50 in the assay with KM-20L2 is > 100 µM (inactive); with Malme-3M it was 28.4 µM (inactive); with COLO 205, 25.2 µM (inactive); with HT-29, 63.8 µM (inactive); in the assay on OVCAR-3 it was 17.1 µM (inactive); with ACHN it was 25.5 µM (inactive). The GI50 is 36 µM (inactive) with SK-MEL-28; 15 µM (inactive) in the assay with LOX IMVI; 48.4 µM (inactive) in the assay on CAKI-1; 23.4 µM (inactive) with NCI-H226; 36.6 µM (inactive) with RXF 393; 45.6 µM (inactive) in the assay with HL-60. The GI50 was 28.1 µM (inactive) in the assay on M19-MEL, 20.1 µM (inactive) with M14, 29.7 µM (inactive) in the assay on A549 and 19.8 µM (inactive) in the assay on HOP-62.
`Cc1ccc(S(=O)(=O)NC(=O)C2S(=O)(=O)OCCOS2(=O)=O)cc1`: the GI50 was > 100 µM (inactive) in the assay with Malme-3M; > 100 µM (inactive) in the assay on COLO 205; > 100 µM (inactive) with HT-29; > 100 µM (inactive) in the assay with OVCAR-3; > 10 µM (inactive) with MOLT-4; > 100 µM (inactive) in the assay with SK-MEL-28. Also, the GI50 with CAKI-1 was > 100 µM (inactive); in the assay with NCI-H226, 1.24 µM (inactive); with KM12 it was > 100 µM (inactive); in the assay on HL-60 it was > 100 µM (inactive); in the assay with M19-MEL it was > 100 µM (inactive); in the assay with M14 it was > 100 µM (inactive). Besides, the GI50 in the assay on A549, with HOP-62 and with SR was > 100 µM (inactive) each time.
For `CC(C)(C)[Si](C)(C)OCC1OC(n2ccc(=O)[nH]c2=O)C(O[Si](C)(C)C(C)(C)C)/C1=C/C#N` (stereo not given), the GI50 was 3.93 µM (inactive) with T47D; 12.8 µM (inactive) in the assay on Malme-3M; 2.61 µM (inactive) in the assay on COLO 205; 3.88 µM (inactive) in the assay on HT-29; 7.29 µM (inactive) in the assay with OVCAR-3; 5.7 µM (inactive) in the assay on ACHN. In addition, the GI50 in the assay with MOLT-4 is 2.72 µM (inactive); in the assay with SK-MEL-28, 1.49 µM (inactive); in the assay with LOX IMVI, 5 µM (inactive); with CAKI-1, 8.43 µM (inactive); in the assay with NCI-H226, 16.8 µM (inactive); with KM12 it was 3.66 µM (inactive). In addition, the GI50 is 2.91 µM (inactive) in the assay with RXF 393; 2.86 µM (inactive) with HL-60; 10.9 µM (inactive) in the assay on M14; 4.18 µM (inactive) in the assay on A549; 12.5 µM (inactive) with HOP-62; 3.5 µM (inactive) with SR.
For the molecule `C=CC[P@@]1(=O)O[C@H](c2ccccc2)C(C)N1C(C)C` (stereo not given in full), the GI50 with Malme-3M, in the assay with HT-29, in the assay with OVCAR-3, with ACHN, in the assay with MOLT-4 and with SK-MEL-28 was > 100 µM (inactive) in each case. Also, the GI50 with LOX IMVI, in the assay on NCI-H226, with KM12, in the assay on RXF 393, in the assay with HL-60 and in the assay on M19-MEL was > 100 µM (inactive) throughout. Also, the GI50 in the assay on M14, in the assay on A549 and in the assay on SR was > 100 µM (inactive) in each case.
`C/C=C1/CN2CCC34C5=CC(=O)C(c6cc7c(cc6OC)N(C)C6=C(C(=O)OC)CC8(CC)CCCN9CCC67C98)=CC5=NC23CCC1C4C(=O)OC` (stereo not given): the GI50 was 15.1 µM (inactive) in the assay on T47D; 15 µM (inactive) in the assay on Malme-3M; 8.61 µM (inactive) with COLO 205; 14.2 µM (inactive) in the assay on HT-29; 14.3 µM (inactive) with OVCAR-3; 15.6 µM (inactive) with ACHN. Moreover, the GI50 in the assay on MOLT-4 is 2.45 µM (inactive); in the assay with SK-MEL-28, 16.8 µM (inactive); in the assay on LOX IMVI, 16.7 µM (inactive); in the assay with CAKI-1 it was 9.51 µM (inactive); in the assay with NCI-H226, 20.4 µM (inactive); with KM12, 16.4 µM (inactive). Further, the GI50 in the assay on RXF 393 was 10.3 µM (inactive); in the assay with HL-60, 1.93 µM (inactive); with M14, 12.3 µM (inactive); with A549, 16.2 µM (inactive); in the assay with HOP-62, 16.8 µM (inactive); in the assay on SR, 2.73 µM (inactive).

The values above are taken from ChEMBL document CHEMBL1201862, “PubChem BioAssay data set” (2004).
